Measurements published in patent publication US4518711A, “Conformationally constrained cyclic enkephalin analogs with delta receptor specificity” (Gibson-Stephens Institute, priority 1983, dated 1985).
Where two headings read alike, the source gives them in different places. Where a SMILES comes first, the peptide text is derived from it. Bridges are numbered along the chain shown (N, C = ends). [ ]: non-standard residue; d: D form. dPen = CC(C)(S)[C@@H](N)C(=O)O

Tests used:
[1] = biological target: T1, delta receptors (rat brain membrane preparations) (Rattus norvegicus, UniProt P33533); assay: Rat brain binding assay, displacement of [3H][D-Ala2, D-Leu5]enkephalin
T1 construct: Whole brains with cerebellum removed were homogenized in 100 volumes of Tris-HCl buffer; from tissue; host or cells: rat whole brain (cerebellum removed) membrane homogenate
T1 sequence (P33533 whole entry): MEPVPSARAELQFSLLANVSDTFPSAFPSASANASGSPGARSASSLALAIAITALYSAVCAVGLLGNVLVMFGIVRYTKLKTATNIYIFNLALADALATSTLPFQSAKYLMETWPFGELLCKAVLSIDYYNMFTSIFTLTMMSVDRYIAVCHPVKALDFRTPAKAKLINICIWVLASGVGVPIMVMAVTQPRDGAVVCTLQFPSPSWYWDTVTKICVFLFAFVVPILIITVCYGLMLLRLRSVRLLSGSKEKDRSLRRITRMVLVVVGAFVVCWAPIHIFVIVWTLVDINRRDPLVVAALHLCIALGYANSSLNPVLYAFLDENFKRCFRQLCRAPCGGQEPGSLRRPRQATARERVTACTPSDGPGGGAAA

[2] = biological target: T2, mu receptors (rat brain membrane preparations) (Rattus norvegicus, UniProt P33535); assay: Rat brain binding assay, displacement of [3H]naloxone
T2 construct: Whole brains with cerebellum removed were homogenized in 100 volumes of Tris-HCl buffer; from tissue; host or cells: rat whole brain (cerebellum removed) membrane homogenate
T2 sequence (P33535 whole entry): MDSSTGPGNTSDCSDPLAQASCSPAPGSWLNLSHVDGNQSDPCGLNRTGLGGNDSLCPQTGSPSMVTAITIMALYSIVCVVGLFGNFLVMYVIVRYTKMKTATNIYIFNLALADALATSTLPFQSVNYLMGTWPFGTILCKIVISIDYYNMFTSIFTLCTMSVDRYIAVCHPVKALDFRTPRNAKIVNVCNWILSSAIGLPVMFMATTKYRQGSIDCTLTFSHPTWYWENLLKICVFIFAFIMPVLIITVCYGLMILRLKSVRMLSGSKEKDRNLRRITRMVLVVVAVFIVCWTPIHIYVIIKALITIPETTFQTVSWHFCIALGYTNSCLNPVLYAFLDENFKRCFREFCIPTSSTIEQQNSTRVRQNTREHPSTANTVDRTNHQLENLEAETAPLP

[3] = biological target: T3, delta type opiate receptors (mouse vas deferens preparation) (Mus musculus, UniProt P32300); assay: Mouse vas deferens (MVD) assay, inhibition of electrically stimulated contractions; type: cell-based; settings: for IC50 (GPI)/IC50 (MVD): delta receptor selectivity, GPI versus MVD
T3 construct: The mouse vas deferens was prepared following the method of Hughes et al; from tissue; host or cells: mouse vas deferens
T3 sequence (P32300 whole entry): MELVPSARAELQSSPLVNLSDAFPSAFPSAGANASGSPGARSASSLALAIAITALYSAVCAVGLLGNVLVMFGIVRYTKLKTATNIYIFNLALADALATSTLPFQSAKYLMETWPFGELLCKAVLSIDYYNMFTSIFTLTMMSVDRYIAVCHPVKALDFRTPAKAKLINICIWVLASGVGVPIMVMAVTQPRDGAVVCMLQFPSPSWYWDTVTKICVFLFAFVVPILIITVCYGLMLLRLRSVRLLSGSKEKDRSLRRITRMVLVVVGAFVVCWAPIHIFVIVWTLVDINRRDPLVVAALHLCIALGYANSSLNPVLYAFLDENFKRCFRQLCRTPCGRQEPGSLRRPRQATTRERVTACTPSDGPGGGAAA
Experimental: These assays tested the degree of electrically stimulated contractions in the MVD and GPI tissues.
The mouse vas deferens was prepared following the method of Hughes et al. One pair of vasa deferentia was used in each experiment.

| Compound | IC50 [1] [nM] | IC50 [2] [nM] | IC50 (NAL)/IC50 (DADLE) ([1]; delta receptor selectivity in rat brain binding) | IC50 [3] [nM] | IC50 (GPI)/IC50 (MVD) [3] | IC50 ([3]; electrically stimulated contractions, mouse vas deferens, read-out: IC50 (nM) MVD) [nM] |
| --- | --- | --- | --- | --- | --- | --- |
| CC(C)C[C@H](NC(=O)[C@H](Cc1ccccc1)NC(=O)CNC(=O)[C@@H](CO)NC(=O)[C@@H](N)Cc1ccc(O)cc1)C(=O)N[C@H](C(=O)O)[C@@H](C)O [[D-Ser^2, Leu^5, Thr^6]Enkephalin, [D-Ser^2, Leu^5, Thr^6]enkephalin] | 5.73 | 88 ± 6 |  |  |  |  |
| C[C@@H](O)[C@H](NC(=O)[C@@H]1CSSC(C)(C)[C@@H](NC(=O)[C@@H](N)Cc2ccc(O)cc2)C(=O)NCC(=O)N[C@@H](Cc2ccccc2)C(=O)N1)C(=O)O (H-Y[dPen]GFCT-OH; disulfide 2-5) | 5.2 | 146 | 28.2 | 0.6 | 380 |  |
| Oc1ccc2c3c1O[C@H]1[C@@H](O)C=C[C@H]4[C@@H](C2)NCC[C@@]341 [Normorphine] |  |  |  |  | 0.17 | 540 |
| CSCC[C@H](NC(=O)[C@H](Cc1ccccc1)NC(=O)CNC(=O)[C@@H](C)NC(=O)[C@@H](N)Cc1ccc(O)cc1)C(N)=O [[D-Ala^2, Met^5]Enkephalinamide, [D-Ala^2, Met^5]Enkephalinamide] |  |  |  | 3.75 |  |  |
| CC(C)C[C@H](NC(=O)[C@H](Cc1ccccc1)NC(=O)CNC(=O)[C@H](NC(=O)[C@@H](N)Cc1ccc(O)cc1)[C@H](C)O)C(=O)N[C@H](C(=O)O)[C@@H](C)O [[D-Thr^2, Leu^5, Thr^6]Enkephalin, [D-Thr^2, Leu^5, Thr^6]enkephalin] | 6.4 | 36.3 |  |  |  |  |
